Source: ChEMBL document CHEMBL5608211, “Antibody-drug conjugates for targeted cancer therapy: Recent advances in potential payloads” (Eur J Med Chem, 2024)
Values after ≈ are worked out from the molar mass of the structure shown. Starred links: 1 amine or outer side, 2 acyl side, 3 side chain; linkers in the order of their positions; H or OH if unused. Non-standard residues stand in square brackets, D forms with d. Residues, ends and D or L forms follow the SMILES beside them. *: point of attachment. Dolaproine = CO[C@@H]([C@@H]1CCCN1)[C@@H](C)C(=O)O; X10 = CC(C)[C@@H](C(=O)[*:2])N(C)CCCCN(C)[*:1]; Dil = CC[C@H](C)[C@H](NC)[C@@H](CC(=O)O)OC; X9 = c1ccc(C[C@H](N*)c2nn[nH]n2)cc1; NMe2Val = CC(C)[C@@H](C(=O)*)N(C)C; X8 = CCOP(=O)(O)[C@H](Cc1ccccc1)N*; X6 = C[C@@H](N*)[C@@H](O)c1ccccc1; NMeV = CN[C@H](C(=O)O)C(C)C; Boc = CC(C)(C)OC(=O)*; NHOH = ON*

Assays:
[1] = Cytotoxicity against human L540cy cells assessed as reduction in cell growth incubated for 4 days by CellTiter-Glo luminescent assay; format: functional, cell-based; conditions: 96 h
HT-29 = assay: Antiproliferative activity against human HT-29 cells assessed as inhibition of cell growth incubated for 96 hrs by SRB assay; format: functional, cell-based; conditions: HT-29, 96 h
KB 3-1 = assay: Cytotoxicity against human KB 3-1 cells assessed as inhibition of cell growth incubated for 3 days by SRB assay; format: functional, cell-based; conditions: KB 3-1, 72 h
H3396 [2] = assay: Cytotoxicity against human H3396 cells assessed as inhibition of cell growth incubated for 96 hrs by Alamar blue assay; format: functional, cell-based; conditions: H3396, 96 h
Tubulin = assay: Displacement of fluorescent Maytansine probe from tubulin (unknown origin) assessed as dissociation constant by competitive binding based fluorescence anisotropy; format: protein-complex assay, Homo sapiens
A2780 [3] = assay: Cytotoxicity against human A2780 cells assessed as inhibition of cell growth incubated for 72 hrs by MTT assay; format: functional, cell-based; conditions: A2780, 72 h
A2058 = assay: Cytotoxicity against human A2058 cells assessed as inhibition of cell growth incubated for 96 hrs by CellTiter-Glo luminescent assay; format: functional, cell-based; conditions: A2058, 96 h
SK-BR-3 [4] = assay: Growth inhibition of human SK-BR-3 cells incubated for 72 hrs by CellTiter-Glo luminescent assay; format: functional
SK-BR-3 [5] = assay: Cytotoxicity against human SK-BR-3 cells incubated for 4 to 7 days hrs by CellTiter-Glo luminescent assay; format: functional, cell-based
K562 = assay: Antiproliferative activity against human K562 cells assessed as inhibition of cell growth incubated for 5 days by WST-1 assay; format: functional, cell-based; conditions: K562, 120 h
HCT-116 = assay: Cytotoxicity against human HCT-116 cells incubated for 96 hrs by resazurin dye based fluorescence spectrometric assay; format: functional, cell-based; conditions: HCT-116, 96 h
SK-OV-3 = assay: Cytotoxicity against human SK-OV-3 cells incubated for 96 hrs by PrestoBlue reagent based cell viability assay; format: functional; conditions: SK-OV-3, 96 h
H3396 [6] = assay: Cytotoxicity against human H3396 cells incubated for 96 hrs by resazurin dye based fluorescence spectrometric assay; format: functional, cell-based; conditions: H3396, 96 h
A2780 [7] = assay: Cytotoxicity against human A2780 cells; format: functional, cell-based
[8] = Apparent permeability across basolateral to apical side in human Caco-2 cells incubated for 2 hrs by HPLC-MS analysis; format: ADME, cell-based
BT-474 = assay: Antiproliferative activity against human BT-474 cells assessed as inhibition of cell growth incubated for 4 days by WST-8 assay; format: functional, cell-based; conditions: BT-474, 96 h

O=C(/C=C/c1cccnc1)NCCCCC1CCN(C(=O)c2ccccc2)CC1 [DAPORINAD]
EC50 [1]: 6.7 nM

CC[C@H](C)[C@@H]([C@@H](CC(=O)N1CCC[C@H]1[C@H](OC)[C@@H](C)C(=O)N[C@@H](Cc1ccccc1)c1nccs1)OC)N(C)C(=O)[C@@H](NC(=O)[C@H](C(C)C)N(C)C)C(C)C [DOLASTATIN-10]
IC50 (HT-29): 0.018 nM

CN[C@H](C(=O)N[C@H](C(=O)N(C)[C@H](/C=C(\C)C(=O)N1CCC[C@H]1[C@H](OC)[C@@H](C)C(=O)N[C@@H](Cc1ccccc1)c1nccs1)C(C)C)C(C)(C)C)C(C)(C)c1ccccc1
IC50 (KB 3-1): 0.75 nM

CC[C@H](C)[C@@H]([C@@H](CC(=O)N1CCC[C@H]1[C@H](OC)[C@@H](C)C(=O)N[C@H](C)[C@@H](O)c1ccccc1)OC)N(C)C(=O)[C@@H](NC(=O)[C@@H](NC)C(C)C)C(C)C (H-[NMeV]V[Dil][Dolaproine]-X6)
IC50 (H3396 [2]): 0.1 nM

COc1cc2cc(c1Cl)N(C)C(=O)C[C@H](OC(C)=O)[C@@]1(C)O[C@H]1[C@H](C)[C@@H]1C[C@@](O)(NC(=O)O1)[C@H](OC)/C=C/C=C(\C)C2
Kd (Tubulin): 11 nM
IC50 (A2780 [3]): 0.25 nM

CC[C@H](C)[C@@H]([C@@H](CC(=O)N1CCC[C@H]1[C@H](OC)[C@@H](C)C(=O)N[C@@H](Cc1ccccc1)C(=O)O)OC)N(C)C(=O)[C@@H](NC(=O)[C@H](C(C)C)N(C)CCCCN(C)C(=O)OC(C)(C)C)C(C)C (Boc-[X10]V[Dil][Dolaproine]F-OH)
IC50 (A2058): 1 nM

CC[C@H](C)[C@@H]([C@@H](CC(=O)N1CCC[C@H]1[C@H](OC)[C@@H](C)C(=O)N[C@@H](CC(C)C)C(=O)NO)OC)N(C)C(=O)[C@@H](NC(=O)[C@H](C(C)C)N(C)C)C(C)C (NMe2Val-V[Dil][Dolaproine]L-{NHOH})
GI50 (SK-BR-3 [4]): 0.1 nM

CCCO[C@H](C[C@H](C(C)C)N(C)C(=O)[C@@H](NC(=O)[C@H]1CCCCN1C)C(C)C)c1nc(C(=O)N[C@@H](Cc2ccc(N)cc2)C[C@H](C)C(=O)O)c(CCOCc2ccccc2)s1
IC50 (SK-BR-3 [5]): 0.04 nM

CC[C@H](C)[C@H](NC(=O)[C@H]1CCCCN1C)C(=O)N(COC(=O)CC(C)C)[C@H](C[C@@H](OC(C)=O)c1nc(C(=O)N[C@H](Cc2ccccc2)C[C@H](C)C(=O)O)cs1)C(C)C
IC50 (K562): 0.02 ng/mL (≈ 0.0242 nM)

CCOP(=O)(O)[C@H](Cc1ccccc1)NC(=O)[C@H](C)[C@@H](OC)[C@@H]1CCCN1C(=O)C[C@@H](OC)[C@H]([C@@H](C)CC)N(C)C(=O)[C@@H](NC(=O)[C@@H](NC)C(C)C)C(C)C (H-[NMeV]V[Dil][Dolaproine]-X8)
IC50 (HCT-116): 0.09 nM

C#CCCCCC(=O)O[C@H]1CC(=O)N(C)c2cc(cc(OC)c2Cl)C/C(C)=C/C=C/[C@@H](OC)[C@@]2(O)C[C@H](OC(=O)N2)[C@@H](C)[C@@H]2O[C@]12C
Kd (Tubulin): 20 nM
IC50 (A2780 [3]): 0.033 nM

CC[C@H](C)[C@@H]([C@@H](CC(=O)N1CCC[C@H]1[C@H](OC)[C@@H](C)C(=O)N[C@@H](Cc1ccccc1)c1nccs1)OC)N(C)C(=O)[C@@H](NC(=O)[C@H](C(C)C)N(C)CC(O)C(O)C(O)C(O)CN=[N+]=[N-])C(C)C (stereo partly drawn)
IC50 (SK-OV-3): < 1 nM

CC[C@H](C)[C@@H]([C@@H](CC(=O)N1CCC[C@H]1[C@H](OC)[C@@H](C)C(=O)N[C@@H](Cc1ccccc1)c1nn[nH]n1)OC)N(C)C(=O)[C@@H](NC(=O)[C@@H](NC)C(C)C)C(C)C (H-[NMeV]V[Dil][Dolaproine]-X9)
IC50 (H3396 [6]): 6 nM

CC(=O)N[C@@H](C)c1ccc(NC(=O)[C@H]2C[C@@H]2c2cccnc2)cc1
IC50 (A2780 [7]): 5 nM

CC[C@H](C)[C@@H]([C@@H](CC(=O)N1CCC[C@H]1[C@H](OC)[C@@H](C)C(=O)N[C@@H](Cc1ccccc1)c1nnc(-c2ccccc2)o1)OC)N(C)C(=O)[C@@H](NC(=O)[C@H](C(C)C)N(C)CCCC(=O)O)C(C)C
Papp B→A at 2 h [8]: 2.9 ×10⁻⁶ cm/s

CC[C@H](C)[C@@H]([C@@H](CC(=O)N1C[C@@H](NC)C[C@H]1[C@H](OC)[C@@H](C)C(=O)NCCc1c(F)cccc1F)OC)N(C)C(=O)[C@@H](NC(=O)[C@H](C(C)C)N(C)C)C(C)C
IC50 (BT-474): < 0.4 nM
